Here are results for 10 compounds from paper PMC6984337, “Targeting the Mycobacterium tuberculosis transpeptidase LdtMt2 with cysteine-reactive inhibitors including ebselen” (Chemical Communications (Cambridge, England), 2019).

Read-outs that look alike come from different tables or passages of the source.

Assay [1] deals with T1, LdtMt2 (Mycobacterium tuberculosis, UniProt I6Y9J2). In words: High-throughput (RapidFire) protein mass spectrometry of covalent adduct formation with LdtMt2. As to conditions: for time to complete reaction (adduct formation) with LdtMt2: LdtMt2 3 µM with two equivalents (6 µM) of inhibitor, 50 mM Tris pH 7.5; for stability of covalent complex with LdtMt2: after 24 hours, RapidFire MS. It counts as biochemical. How it is done: Inhibition assays were performed in flat-bottomed 384-well μ-clear plates (Greiner Bio-One) with a final volume of 25 μL, and using 50 mM HEPES, pH 7.5 containing 0.01% (v/v) Triton X-100 as the assay buffer. LdtMt2 (100 nM) was treated with a range of inhibitor concentrations, and the mixture was incubated for 0, 10 or 60 minutes. Following this pre-incubation, fluorogenic probe 1 (25 μM)2 was added, and the mixture was incubated for a further 30 minutes. The fluorescence signal was then measured using a BMG Labtech PHERAstar FS with λex = 480 nm and λem = 520 nm using the bottom optic. All reactions were carried out in quadruplicate, and controls without inhibitor and without LdtMt2 were included. Inhibition results were normalised using the no inhibitor and no enzyme controls. Dose-response analysis was performed using Prism (GraphPad) with the log(inhibitor) vs normalized response -- variable slope model. Data points were plotted as mean average with the standard deviation as the […]
T1 sequence (I6Y9J2 56-408): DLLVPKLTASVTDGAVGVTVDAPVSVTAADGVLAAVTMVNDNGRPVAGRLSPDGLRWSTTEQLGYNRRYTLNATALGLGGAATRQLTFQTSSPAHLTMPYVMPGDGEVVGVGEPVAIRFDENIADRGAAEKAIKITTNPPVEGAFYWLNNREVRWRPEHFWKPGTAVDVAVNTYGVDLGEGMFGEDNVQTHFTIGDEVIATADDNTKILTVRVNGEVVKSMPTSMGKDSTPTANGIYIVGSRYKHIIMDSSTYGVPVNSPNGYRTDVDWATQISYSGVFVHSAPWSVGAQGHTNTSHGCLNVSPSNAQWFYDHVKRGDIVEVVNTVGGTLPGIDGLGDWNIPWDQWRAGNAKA
Mass spectrometric analyses were performed using an Agilent 6550 system equipped with a RapidFire sampler. Samples (100 µL) were prepared in 50 mM Tris, pH 7.5, consisting of 3 µM LdtMt2 and either 6 µM or 30 µM of the relevant inhibitor, as […]
Purified LdtMt2 Δ1-55 (approx. 1 mM; His-tag cleaved) in 50 mM Tris, pH 8.0, 100 mM NaCl was used for crystallography. Crystallisation trials were set up using the sitting drop vapour diffusion method with the JCSG+ broad screen (Molecular Dimensions). A structure of LdtMt2 Δ1-55 (PDB 6RLG) was solved using a crystal […]
Figure S3. MS analysis of the apparent covalent adducts formed with LdtMt2 and the cysteine-reactive inhibitors. […]
conditions used for mass spectrometry are described in the Experimental Details […]
(1 picture or pasted object on this page, not shown here)

Assay [2] has as its target T1, LdtMt2. In words: Fluorescence-based (fluorogenic probe 1) inhibition assay for LdtMt2. The class given is biochemical.
Setting [3] is: IC50 (μM, mean ± SD) 10 min, 10 min pre-incubation prior to addition of fluorogenic probe 1, LdtMt2 100 nM, probe 1 25 μM.
Where [4] appears, read: IC50 (μM, mean ± SD) 60 min, LdtMt2 100 nM, probe 1 25 μM.
Where [5] appears, read: without pre-incubation prior to addition of fluorogenic probe 1, LdtMt2 100 nM, probe 1 25 μM, read-out: IC50 (μM, mean ± SD) 0 min.

As to `O=c1c2ccccc2[se]n1-c1ccccc1` [Compound 4, Ebselen], in assay [1], the “time to complete reaction (adduct formation) with LdtMt2” value (“time to complete reaction” below) was no more than 1 min. Moreover, the IC50 in assay [2] (setting [3]) came out at 0.159 ± 0.077 µM; in assay [2] (setting [4]) it was 0.143 ± 0.014 µM; in assay [2] (setting [5]), 0.36 ± 0.02 µM.
As to `C[C@@H](O)[C@H]1C(=O)N2C(C(=O)O)=C([C@H]3CCCO3)S[C@H]12` [Compound 11, Faropenem], the “stability of covalent complex with LdtMt2” value in assay [1] is “a small amount of unbound protein was observed”.
For the compound `O=C1C=CC(=O)N1` [Compound 3, Maleimide], the “time to complete reaction” value in assay [1] is listed as greater than 82 min. Moreover, the IC50 in assay [2] (IC50 (μM, mean ± SD) 0 min) turned out to be 158 ± 9 µM; in assay [2] (IC50 (μM, mean ± SD) 10 min), 48.3 ± 3.6 µM; in assay [2] (IC50 (μM, mean ± SD) 60 min), 18.6 ± 0.7 µM.
Consider `Cl[Se]c1ccccc1` [Compound 6, PhSeCl], for which the IC50 in assay [2] (setting [3]) was found to be 24.6 ± 0.9 µM; in assay [2] (setting [4]) it was 20 ± 1.2 µM; in assay [2] (setting [5]), 62.8 ± 2.2 µM.
As to `NC(=O)CI` [Compound 2, Iodoacetamide], the IC50 in assay [2] (read-out: IC50 (μM, mean ± SD) 10 min, 10 min pre-incubation prior to addition of fluorogenic probe 1, LdtMt2 100 nM, probe 1 25 μM) was 32.5 ± 1.4 µM; in assay [2] (read-out: IC50 (μM, mean ± SD) 60 min, LdtMt2 100 nM, probe 1 25 μM), 10.1 ± 0.7 µM; in assay [2] (setting [5]), 129 ± 14 µM.
For the compound `CN(C)C(=S)SSC(=S)N(C)C` [Compound 8, Thiram], the “time to complete reaction” value in assay [1] is listed as no more than 45 min. For the same compound, the “stability of covalent complex with LdtMt2” value in assay [1] is recorded as “a small amount of unbound protein was observed”. In addition, the IC50 turned out to be 2.93 ± 0.11 µM in assay [2] (setting [3]), 0.78 ± 0.029 µM in assay [2] (setting [4]) and 7.01 ± 0.29 µM in assay [2] (setting [5]).
In the case of `O=[Se](O)c1ccccc1` [Compound 7, PhSe(O)OH], the IC50 in assay [2] (setting [3]) came to 136 ± 17 µM; in assay [2] (setting [4]), 93.2 ± 9.3 µM; in assay [2] (setting [5]), 309 ± 7 µM.
`CCC(C)SSc1ncc[nH]1` (stereo not drawn) [Compound 10, PX-12]: the IC50 was found to be 9.56 ± 0.25 µM in assay [2] (setting [3]), 2.48 ± 0.1 µM in assay [2] (setting [4]) and 27.2 ± 0.5 µM in assay [2] (setting [5]).
With `Br[Se]c1ccccc1` [Compound 5, PhSeBr], the IC50 in assay [2] (setting [3]) turned out to be 5.05 ± 0.35 µM; in assay [2] (setting [4]) it was 2.02 ± 0.61 µM; in assay [2] (setting [5]) it was 11.8 ± 1.3 µM.
Turning to `c1ccc(SSc2ccccn2)nc1` [Compound 9, Aldrithiol], the “time to complete reaction” value in assay [1] is given as no more than 10 min. Besides, the IC50 in assay [2] (setting [3]) was 5.35 ± 0.21 µM; in assay [2] (setting [4]), 1.61 ± 0.03 µM; in assay [2] (setting [5]), 22.1 ± 0.7 µM.

Usually IC50 stands for the concentration that inhibits the measured activity by half.
